Reference: ChEMBL document CHEMBL3991601, “The target landscape of clinical kinase drugs” (Science, 2017)
Calls of active or inactive are those of the source. Cut-off read from the data, not from the text of the source, for most assays here: actives have a measured Kd and inactives only a lower limit.

Experiments:
[1] = molecular target: T1, Very long-chain specific acyl-CoA dehydrogenase, mitochondrial (Homo sapiens, UniProt P49748)
T1 sequence (P49748 whole entry): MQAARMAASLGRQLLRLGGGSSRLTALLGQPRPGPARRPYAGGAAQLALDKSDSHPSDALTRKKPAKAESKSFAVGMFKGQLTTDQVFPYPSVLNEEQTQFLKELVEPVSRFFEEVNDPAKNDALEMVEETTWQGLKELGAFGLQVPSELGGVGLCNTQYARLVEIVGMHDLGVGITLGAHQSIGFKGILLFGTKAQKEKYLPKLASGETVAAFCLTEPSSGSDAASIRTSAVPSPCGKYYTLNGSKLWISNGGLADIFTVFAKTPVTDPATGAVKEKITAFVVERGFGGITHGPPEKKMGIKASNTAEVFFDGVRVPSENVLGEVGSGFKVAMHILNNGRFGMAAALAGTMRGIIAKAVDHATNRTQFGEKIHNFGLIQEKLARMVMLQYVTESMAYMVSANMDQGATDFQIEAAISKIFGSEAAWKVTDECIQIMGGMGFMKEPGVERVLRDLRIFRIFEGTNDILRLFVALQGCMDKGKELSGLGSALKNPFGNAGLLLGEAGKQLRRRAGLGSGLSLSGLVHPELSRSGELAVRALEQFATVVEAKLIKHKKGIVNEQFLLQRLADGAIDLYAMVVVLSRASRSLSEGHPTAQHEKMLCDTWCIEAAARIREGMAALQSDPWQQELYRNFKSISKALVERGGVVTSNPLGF

[2] = molecular target: Proto-oncogene tyrosine-protein kinase Src (Homo sapiens, UniProt P12931)
Chain of Proto-oncogene tyrosine-protein kinase Src (P12931 2-536 limits assumed): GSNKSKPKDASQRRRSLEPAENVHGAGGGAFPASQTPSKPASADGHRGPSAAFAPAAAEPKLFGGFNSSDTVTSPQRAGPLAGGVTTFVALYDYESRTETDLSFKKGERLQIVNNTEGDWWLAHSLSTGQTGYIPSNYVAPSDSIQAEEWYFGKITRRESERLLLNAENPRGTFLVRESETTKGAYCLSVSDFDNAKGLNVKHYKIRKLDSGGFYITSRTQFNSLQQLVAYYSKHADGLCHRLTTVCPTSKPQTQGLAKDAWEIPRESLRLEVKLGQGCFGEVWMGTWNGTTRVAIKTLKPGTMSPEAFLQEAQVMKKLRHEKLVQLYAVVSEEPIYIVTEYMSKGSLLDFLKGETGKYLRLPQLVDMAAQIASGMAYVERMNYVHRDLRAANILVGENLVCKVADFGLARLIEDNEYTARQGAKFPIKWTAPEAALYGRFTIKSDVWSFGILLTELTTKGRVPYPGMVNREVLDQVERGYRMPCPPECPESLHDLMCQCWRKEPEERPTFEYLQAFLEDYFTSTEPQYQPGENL

[3] = molecular target: T2, Mitogen-activated protein kinase kinase kinase 5 (Homo sapiens, UniProt Q99683)
T2 sequence (Q99683 whole entry): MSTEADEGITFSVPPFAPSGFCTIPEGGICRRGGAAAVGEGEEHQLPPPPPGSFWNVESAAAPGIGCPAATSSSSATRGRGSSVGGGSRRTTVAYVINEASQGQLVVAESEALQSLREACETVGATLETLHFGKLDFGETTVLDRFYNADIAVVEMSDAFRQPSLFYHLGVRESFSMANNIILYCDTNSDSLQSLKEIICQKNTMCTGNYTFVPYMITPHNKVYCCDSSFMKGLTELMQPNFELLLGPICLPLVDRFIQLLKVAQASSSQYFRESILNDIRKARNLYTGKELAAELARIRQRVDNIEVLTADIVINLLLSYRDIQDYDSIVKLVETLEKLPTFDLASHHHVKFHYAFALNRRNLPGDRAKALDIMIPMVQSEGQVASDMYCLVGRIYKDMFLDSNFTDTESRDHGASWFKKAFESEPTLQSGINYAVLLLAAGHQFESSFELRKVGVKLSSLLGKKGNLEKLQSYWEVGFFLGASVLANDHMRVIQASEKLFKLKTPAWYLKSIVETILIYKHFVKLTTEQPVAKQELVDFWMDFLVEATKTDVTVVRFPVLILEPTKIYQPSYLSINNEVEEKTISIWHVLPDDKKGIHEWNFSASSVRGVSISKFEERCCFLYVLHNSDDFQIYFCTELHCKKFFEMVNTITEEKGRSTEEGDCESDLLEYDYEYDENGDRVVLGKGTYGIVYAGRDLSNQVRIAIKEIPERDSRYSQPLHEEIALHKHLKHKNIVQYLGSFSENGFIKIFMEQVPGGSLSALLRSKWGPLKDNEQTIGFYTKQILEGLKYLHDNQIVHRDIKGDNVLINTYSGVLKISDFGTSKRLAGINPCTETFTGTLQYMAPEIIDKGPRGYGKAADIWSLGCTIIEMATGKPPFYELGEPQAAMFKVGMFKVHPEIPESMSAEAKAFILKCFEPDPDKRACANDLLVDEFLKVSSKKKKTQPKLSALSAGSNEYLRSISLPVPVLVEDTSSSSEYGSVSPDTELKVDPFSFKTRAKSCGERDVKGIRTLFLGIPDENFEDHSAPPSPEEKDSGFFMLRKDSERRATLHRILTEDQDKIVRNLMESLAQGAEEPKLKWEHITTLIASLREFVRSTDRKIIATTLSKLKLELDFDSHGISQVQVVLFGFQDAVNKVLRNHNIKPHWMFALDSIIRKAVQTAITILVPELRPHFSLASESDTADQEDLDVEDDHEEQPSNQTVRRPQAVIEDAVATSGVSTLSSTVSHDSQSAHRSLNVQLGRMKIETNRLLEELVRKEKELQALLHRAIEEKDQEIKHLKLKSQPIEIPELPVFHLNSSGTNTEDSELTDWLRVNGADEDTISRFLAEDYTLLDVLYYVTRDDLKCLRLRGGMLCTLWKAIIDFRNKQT

[4] = molecular target: T3, Ferrochelatase, mitochondrial (Homo sapiens, UniProt P22830)
T3 sequence (P22830 whole entry): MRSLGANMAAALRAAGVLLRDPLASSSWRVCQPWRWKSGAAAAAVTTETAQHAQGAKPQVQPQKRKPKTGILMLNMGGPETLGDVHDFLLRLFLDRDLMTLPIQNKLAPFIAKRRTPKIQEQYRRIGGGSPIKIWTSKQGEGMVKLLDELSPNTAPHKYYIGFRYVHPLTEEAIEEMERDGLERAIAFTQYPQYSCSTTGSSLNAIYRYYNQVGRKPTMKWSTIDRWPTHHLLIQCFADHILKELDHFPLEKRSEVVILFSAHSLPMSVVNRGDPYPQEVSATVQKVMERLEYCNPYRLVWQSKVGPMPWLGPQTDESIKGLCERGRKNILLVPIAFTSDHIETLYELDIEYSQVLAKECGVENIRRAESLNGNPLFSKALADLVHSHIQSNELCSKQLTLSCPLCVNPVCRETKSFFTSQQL

[5] = molecular target: LIM domain kinase 2 (Homo sapiens, UniProt P53671)
Chain of LIM domain kinase 2 (P53671 whole entry, the tested form may be a part): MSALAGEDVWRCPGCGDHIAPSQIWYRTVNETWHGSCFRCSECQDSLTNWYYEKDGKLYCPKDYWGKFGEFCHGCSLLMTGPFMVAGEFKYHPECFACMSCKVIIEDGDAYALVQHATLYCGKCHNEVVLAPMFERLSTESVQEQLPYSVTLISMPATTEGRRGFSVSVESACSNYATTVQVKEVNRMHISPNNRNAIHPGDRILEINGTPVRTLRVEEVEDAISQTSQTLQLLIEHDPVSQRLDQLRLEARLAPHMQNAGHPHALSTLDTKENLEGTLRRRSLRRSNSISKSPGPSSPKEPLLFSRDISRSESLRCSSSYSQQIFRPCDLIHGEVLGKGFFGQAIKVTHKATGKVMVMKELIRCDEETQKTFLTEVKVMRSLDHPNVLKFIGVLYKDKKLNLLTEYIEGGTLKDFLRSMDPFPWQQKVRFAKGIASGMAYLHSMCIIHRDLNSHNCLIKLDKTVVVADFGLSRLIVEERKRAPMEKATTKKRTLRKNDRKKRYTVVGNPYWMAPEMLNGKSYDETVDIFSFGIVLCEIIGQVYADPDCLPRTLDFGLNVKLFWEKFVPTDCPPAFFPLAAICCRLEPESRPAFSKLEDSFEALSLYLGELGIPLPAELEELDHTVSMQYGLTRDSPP
Note: in the data inactive means no Kd found up to 30 µM.

SMILES	Kd [1]	Kd [2]	Kd [3]	Kd [4]	Kd [5]
CCS(=O)(=O)N1CC(CC#N)(n2cc(-c3ncnc4[nH]ccc34)cn2)C1 [BARICITINIB]	> 30 µM (inactive)	> 30 µM (inactive)	> 30 µM (inactive)	> 30 µM (inactive)	> 30 µM (inactive)
Cc1c(F)cc(C(=O)NC2CC2)cc1-c1ccc(C(=O)NCC(C)(C)C)cn1 [LOSMAPIMOD]	> 30 µM (inactive)	> 30 µM (inactive)	> 30 µM (inactive)	> 30 µM (inactive)	> 30 µM (inactive)
CO[C@H]1C[C@@H]2CC[C@@H](C)[C@@](O)(O2)C(=O)C(=O)N2CCCC[C@H]2C(=O)O[C@H]([C@H](C)C[C@@H]2CC[C@@H](OCCO)[C@H](OC)C2)CC(=O)[C@H](C)/C=C(\C)[C@@H](O)[C@@H](OC)C(=O)[C@H](C)C[C@H](C)/C=C/C=C/C=C/1C [EVEROLIMUS]	> 30 µM (inactive)	> 30 µM (inactive)	> 30 µM (inactive)	> 30 µM (inactive)	> 30 µM (inactive)
CCN1CCN(Cc2ccc(-c3cc4c(N[C@H](C)c5ccccc5)ncnc4[nH]3)cc2)CC1 [AEE-788]	> 30 µM (inactive)	> 30 µM (inactive)	> 30 µM (inactive)	> 30 µM (inactive)	21.8 µM (active)
CC(=O)Nc1cccc(-n2c(=O)n(C3CC3)c(=O)c3c(Nc4ccc(I)cc4F)n(C)c(=O)c(C)c32)c1 [TRAMETINIB]	> 30 µM (inactive)	> 30 µM (inactive)	> 30 µM (inactive)	> 30 µM (inactive)	> 30 µM (inactive)
O=C(O)[C@]1(Cc2cccc(Nc3nccs3)n2)CC[C@@H](Oc2cccc(Cl)c2F)CC1 [MK-5108]	> 30 µM (inactive)	> 30 µM (inactive)	> 30 µM (inactive)	> 30 µM (inactive)	> 30 µM (inactive)
C1=C/COCc2cc(ccc2OCCN2CCCC2)Nc2nccc(n2)-c2cccc(c2)COC/1 [PACRITINIB]	> 30 µM (inactive)	> 30 µM (inactive)	> 30 µM (inactive)	67.9 µM (active)	52.1 µM (active)
N[C@@H]1CCCN(c2c(/C=C3\SC(=O)NC3=O)cccc2-c2ccccc2)C1	> 30 µM (inactive)	> 30 µM (inactive)	> 30 µM (inactive)	> 30 µM (inactive)	> 30 µM (inactive)
Cc1ccc(NC(=O)c2ccc(CN3CC[C@H](N(C)C)C3)c(C(F)(F)F)c2)cc1Nc1nccc(-c2cncnc2)n1 [BAFETINIB]	> 30 µM (inactive)	> 30 µM (inactive)	> 30 µM (inactive)	> 30 µM (inactive)	> 30 µM (inactive)
O=C(Nc1ccc(-c2ccnc(Nc3ccc(N4CCOCC4)cc3)n2)cc1)C1CCCN1 (stereo not given) [XL-019]	> 30 µM (inactive)	> 30 µM (inactive)	> 30 µM (inactive)	> 30 µM (inactive)	> 30 µM (inactive)
O=C(c1ccc(F)c(F)c1Nc1ccc(I)cc1F)N1CC(O)([C@@H]2CCCCN2)C1 [COBIMETINIB]	> 30 µM (inactive)	> 30 µM (inactive)	> 30 µM (inactive)	> 30 µM (inactive)	> 30 µM (inactive)
C[C@@H]1CN(Cc2ccc(F)cc2)[C@@H](C)CN1C(=O)c1cc2c(C(=O)C(=O)N(C)C)cn(C)c2cc1Cl [TALMAPIMOD]	> 30 µM (inactive)	> 30 µM (inactive)	> 30 µM (inactive)	> 30 µM (inactive)	> 30 µM (inactive)
Cc1cc(-c2cc(O)ccc2Cl)cc2nnc(Nc3ccc(OCCN4CCCC4)cc3)nc12	> 30 µM (inactive)	0.001 µM (active)	> 30 µM (inactive)	> 30 µM (inactive)	> 30 µM (inactive)
COc1cc(CCc2cc(NC(=O)c3ccc(N4C[C@@H](C)N[C@@H](C)C4)cc3)n[nH]2)cc(OC)c1 [AZD-4547]	> 30 µM (inactive)	> 30 µM (inactive)	> 30 µM (inactive)	> 30 µM (inactive)	> 30 µM (inactive)
Cc1cc([C@@H](C)Nc2ccccc2C(=O)O)c2nc(N3CCOCC3)cc(=O)n2c1 [AZD-6482]	> 30 µM (inactive)	> 30 µM (inactive)	> 30 µM (inactive)	> 30 µM (inactive)	> 30 µM (inactive)
